Patent US10245238B2, “Composition for oral intake” (THERAVALUES CORPORATION, priority 2014, dated 2019)

Assay: Oral absorbability of various complexes: curcumin concentration in blood plasma after forced oral administration
Format: in vivo
Settings: SD rats, curcumin dose 10 mg/kg
Protocol: (Oral Absorbability of Various Complexes)
For the test animal, 6-week old SD rats (male, body weight: 170 g to 260 g, Charles River Laboratories Japan, Inc.) were used.
In regard to the administration method, the various complexes (Examples 1 to 13) produced as described above were each added to water for injection in a predetermined amount, subsequently the mixture was made up to 20 mL so as to obtain a curcumin concentration of 1 mg/mL, the mixture was mixed using an ultrasonic generator, and the mixture was forcibly orally administered to test animals (n 3 or 5) that had been fasted for 12 hours or longer before administration, using a feeding needle, such that the curcumin dose would be 10 mg/kg (Administration Test Examples 1 to 13) or 50 mg/kg (Administration Test Example 14).
Meanwhile, the cases of administering curcumin base powder (Comparative Test Example 1); physical mixture obtained by simply physically mixing curcumin base powder and hydroxypropylmethyl cellulose powder or hydroxypropyl cellulose powder (curcumin:HPMC=1:3 or curcumin HPC=1:3) (Comparative Test Examples 2 and 3); or CR-031P powder (manufactured by Theravalues Corp.), which is a turmeric dye composition obtained by combining micronized curcuminoid with gum ghatti (Comparative Test Examples 4 and 5) was designated as controls.
For the measurement of the concentration of curcumin and/or an analog thereof in blood plasma, measurement was made by the following method, using heparinized blood plasma obtained by collecting about 0.5 mL of blood from the jugular vein of the test animals without anesthesia, after 30 minutes, 1 hour, and 2 hours from the initiation of administration.
100 μL of 0.1 M acetate buffer solution (pH 5.0) and 10 μL of β-glucuronidase solution (about 68,000 units/mL) were added to 20 μL of the collected blood plasma, and the mixture was maintained for 1 hour at 37° C. Subsequently, 10 μL of 50% (v/v) methanol including 20 ng/mL of mepronil, which was an internal standard liquid, and 0.5 mL of chloroform were added thereto, the mixture was stirred for 1 minute using a vortex mixer, and then the mixture was mixed for 15 minutes using an ultrasonic generator. An extraction-treated liquid thus prepared was separated into chloroform layer and an aqueous layer by centrifugation (13,000×g, for 5 minutes, at room temperature). This extraction treatment was repeated two times. Subsequently, the chloroform layer was collected, and the solvent was distilled off from this layer using a vacuum centrifugal concentrator to solid-dry the chloroform layer. 100 μL of 50% (v/v) methanol was added thereto, and then the mixture was centrifuged (13,000×g, for 5 minutes, at room temperature) to collect the supernatant.
2 μL of the supernatant produced as described above was subjected to an analysis using LC-MS/MS (manufactured by Shimadzu Corp.), and thereby the curcumin concentration in the blood plasma was measured. The conditions for the LC-MS/MS analysis were set such that the LC column was ATLANTIS T3 (2.1×150 mm, 3 μm, manufactured by Waters Corp.), the column temperature was 40° C., the flow rate was 0.2 mL/min, and the mobile phase included A: 0.1% aqueous solution of formic acid, and B: 0.1% formic acid/acetonitrile, and gradient elution was performed under the following conditions. […]

COc1cc(/C=C/C(=O)/C=C(O)/C=C/c2ccc(O)c(OC)c2)ccc1O [Curcumin base powder, curcumin]
AUC (0 to 2 h): 33.9 ng/mL · 0-2 h | Cmax (male, rat, plasma): 49.8 ng/mL | concentration at 0.5 h (male, rat, plasma, 0.5 h after administration): 7.8 ng/mL | concentration at 1 h (male, rat, plasma, 1 h after administration): 17.2 ng/mL | concentration at 2 h (male, rat, plasma, 2 h after administration): 34.2 ng/mL
